Target: Protein-arginine deiminase type-4 (Homo sapiens, UniProt Q9UM07)
Experiment: human PAD4 inhibitor potency, dose response, biochemical, fluorescence readout (AID 492970)

Protein-arginine deiminase type-4, sequence (Q9UM07 whole entry): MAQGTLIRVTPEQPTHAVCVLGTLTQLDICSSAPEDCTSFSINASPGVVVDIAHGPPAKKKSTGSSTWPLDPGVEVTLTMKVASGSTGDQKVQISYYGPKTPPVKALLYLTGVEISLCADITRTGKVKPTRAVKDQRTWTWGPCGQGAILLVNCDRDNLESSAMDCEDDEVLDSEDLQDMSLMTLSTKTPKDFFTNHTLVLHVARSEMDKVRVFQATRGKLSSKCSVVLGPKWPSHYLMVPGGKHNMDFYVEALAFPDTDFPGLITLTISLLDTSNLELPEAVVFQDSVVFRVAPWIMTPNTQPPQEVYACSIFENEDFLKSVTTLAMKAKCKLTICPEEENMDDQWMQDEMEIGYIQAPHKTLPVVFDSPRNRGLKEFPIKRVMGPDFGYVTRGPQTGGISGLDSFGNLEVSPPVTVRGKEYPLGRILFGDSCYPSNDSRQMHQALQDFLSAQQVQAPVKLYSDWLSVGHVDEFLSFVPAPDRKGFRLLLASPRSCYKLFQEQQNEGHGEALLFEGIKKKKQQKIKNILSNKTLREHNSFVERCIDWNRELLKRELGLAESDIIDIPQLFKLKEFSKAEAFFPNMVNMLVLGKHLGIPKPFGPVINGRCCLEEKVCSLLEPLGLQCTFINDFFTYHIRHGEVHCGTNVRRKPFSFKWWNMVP

- IC50: 100 µM
Structure (SMILES): O=C1NCC2=Nc3ccccc3NC(c3ccccc3)C12 (stereo unspecified) [MLS000106925]
